Laboratory results from paper PMC3376186 (Bioorganic & medicinal chemistry letters, 2012).

What was measured:
[1] = Mouse plasma and brain exposure after IP dose; type: in vivo, C57Bl6 mice
LXRβ = settings: reporter-gene assay; reported; cited from earlier work
Rev-erbα [2] = target: T1, Rev-erbα (Homo sapiens, UniProt P20393); settings: Luminex technology; cited from earlier work
T1 sequence (P20393 1-614): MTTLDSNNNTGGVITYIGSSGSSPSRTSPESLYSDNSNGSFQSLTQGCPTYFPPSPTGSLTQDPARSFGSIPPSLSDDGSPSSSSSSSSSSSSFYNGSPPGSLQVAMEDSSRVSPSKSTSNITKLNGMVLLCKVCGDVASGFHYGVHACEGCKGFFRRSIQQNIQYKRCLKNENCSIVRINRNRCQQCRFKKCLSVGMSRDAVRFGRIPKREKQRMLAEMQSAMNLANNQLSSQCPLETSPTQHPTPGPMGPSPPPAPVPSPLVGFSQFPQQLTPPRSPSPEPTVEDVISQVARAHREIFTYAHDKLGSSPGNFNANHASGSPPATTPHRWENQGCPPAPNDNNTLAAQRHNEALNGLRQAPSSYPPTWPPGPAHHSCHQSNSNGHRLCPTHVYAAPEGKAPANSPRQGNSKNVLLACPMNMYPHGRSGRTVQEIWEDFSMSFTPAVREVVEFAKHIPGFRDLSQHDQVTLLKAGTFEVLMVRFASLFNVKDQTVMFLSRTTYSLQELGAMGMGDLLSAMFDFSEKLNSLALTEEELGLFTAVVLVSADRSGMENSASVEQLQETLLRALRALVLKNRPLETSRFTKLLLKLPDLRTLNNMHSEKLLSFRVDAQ

SF1 = settings: same FRET assay; reported; cited from earlier work
LXRα = settings: reporter-gene assay; reported; cited from earlier work
[3] = system: Rev-erbα-NCoR interaction; settings: read-out: EC50, enhancement of Rev-erbα-NCoR interaction; FRET assay; cited from earlier work
RORα = settings: same FRET assay; reported; cited from earlier work
FXR = settings: same FRET assay; reported; cited from earlier work
Rev-erbβ = settings: Luminex technology; cited from earlier work
LRH1 = settings: same FRET assay; reported; cited from earlier work
Rev-erbα [4] = target: T1, Rev-erbα; settings: HEK293 cells, Gal4 DBD:REV-ERB LBD α; cited from earlier work
Rev-erbα [5] = target: T1, Rev-erbα; settings: circular dichroism analysis; cited from earlier work
[6] = system: REV-ERB ligand binding domain (LBD) β; settings: HEK293 cells, Gal4 DBD:REV-ERB LBD β; cited from earlier work

Compound: CS(=O)(=O)N1CCC(CN(Cc2ccc(Cl)cc2)Cc2ccc([N+](=O)[O-])s2)C1 (stereo not drawn) [Compound 12j]
- Kp at 2 h ([1]; C57Bl6, mouse, brain, ip, 10 mg/kg): 2.42

Compound: CC(C)(C)OC(=O)CN(Cc1ccc(Cl)cc1)Cc1ccc([N+](=O)[O-])s1 [Compound 1]
- activity on LXRβ (LXRβ): no activity
- interaction of Rev-erbα with the NCoR peptide (Rev-erbα [2]): dose-dependently increased
- activity on SF1 (SF1): no activity
- activity on LXRα (LXRα): no activity
- EC50 [3]: 400 nM
- activity on RORα (RORα): no activity
- activity on FXR (FXR): no activity
- interaction of Rev-erbβ with the NCoR peptide (Rev-erbβ): dose-dependently increased
- activity on LRH1 (LRH1): no activity
- b.p. (brain penetration) ([1]; mice, 10 mg/kg IP in 10:10:80 DMSO:Tween:water, t = 2h): 140%

Compound: CCOC(=O)N1CCC(CN(Cc2ccc(Cl)cc2)Cc2ccc([N+](=O)[O-])s2)C1 (stereo not drawn) [Compound 12e]
- Rev-erb-dependent repressor activity (LBD α) (Rev-erbα [4]): dose-dependently increased
- Direct binding to Rev-erbα (Rev-erbα [5]): confirmed
- Rev-erb-dependent repressor activity (LBD β) [6]: dose-dependently increased
- [Brain] ([1]; mice, 50 mg/kg IP in 15% cremaphor EL, brain levels at 8h): ^d8.7 μM
